Measured values as given in PubChem BioAssay (NCI).
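Interpolation was linear, between the two tested concentrations surrounding the appropriate level; five concentrations were tested over 48 hours in 96-well plates. TGI denotes the concentration required for complete inhibition of growth.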

Legend:
Assay in all cases: growth of human tumour cells (NCI), 48 h
[1] = tested on: UO-31 renal
[2] = tested on: MDA-MB-435
[3] = tested on: M14 melanoma
[4] = tested on: 786-0 renal
[5] = tested on: IGROV1 ovarian
[6] = tested on: NCI/ADR-RES ovarian
[7] = tested on: RXF 393 renal
[8] = tested on: A549 NSCLC
[9] = tested on: HCC-2998 colon
[10] = tested on: SN12C renal
[11] = tested on: NCI-H226 lung
[12] = tested on: HCT-15 colon
[13] = tested on: K-562 leukemia
[14] = tested on: SR leukemia
[15] = tested on: HOP-62 NSCLC
[16] = tested on: OVCAR-8 ovarian
[17] = tested on: NCI-H460 lung
[18] = tested on: CCRF-CEM leukemia
[19] = tested on: MOLT-4 leukemia
[20] = tested on: HOP-92 NSCLC
[21] = tested on: ACHN renal
[22] = tested on: DU-145 prostate
[23] = tested on: SF-295 CNS
[24] = tested on: CAKI-1 renal
[25] = tested on: U251 CNS
[26] = tested on: SK-OV-3 ovarian
[27] = tested on: RPMI-8226 leukemia
[28] = tested on: MCF7 breast
[29] = tested on: SW-620 colon
[30] = tested on: OVCAR-4 ovarian
[31] = tested on: PC-3 prostate
[32] = tested on: SF-539 CNS
[33] = tested on: MDA-N
[34] = tested on: SNB-75 CNS
[35] = tested on: HS 578T breast
[36] = tested on: MDA-MB-231 breast
[37] = tested on: SK-MEL-2 melanoma
[38] = tested on: SF-268 CNS
[39] = tested on: SK-MEL-28 melanoma
[40] = tested on: BT-549 breast
[41] = tested on: SK-MEL-5 melanoma
[42] = tested on: UACC-62 melanoma
[43] = tested on: HT29 colon
[44] = tested on: COLO 205 colon
[45] = tested on: NCI-H23 lung
[46] = tested on: HCT-116 colon
[47] = tested on: UACC-257 melanoma
[48] = tested on: NCI-H522 lung
[49] = tested on: KM12 colon
[50] = tested on: EKVX NSCLC
[51] = tested on: SNB-19 CNS
[52] = tested on: OVCAR-5 ovarian
[53] = tested on: OVCAR-3 ovarian
[54] = tested on: MALME-3M melanoma
[55] = tested on: A498 renal
[56] = tested on: T-47D breast
[57] = tested on: HL-60(TB) leukemia
[58] = tested on: LOX IMVI melanoma
[59] = tested on: TK-10 renal

## Clc1cc(N/N=C(/c2ccccc2)c2ncccn2)ncn1
[1]
  TGI: 55.8 µM
[2]
  TGI: > 100 µM
[3]
  TGI: > 100 µM
[4]
  TGI: 79.3 µM
[5]
  TGI: 36.3 µM
[6]
  TGI: 50.8 µM
[7]
  TGI: 41.4 µM
[8]
  TGI: 85.1 µM
[9]
  TGI: > 100 µM
[10]
  TGI: > 100 µM
[11]
  TGI: > 100 µM
[12]
  TGI: > 100 µM
[13]
  TGI: 51.8 µM
[14]
  TGI: > 100 µM
[15]
  TGI: 59.3 µM
[16]
  TGI: 34.6 µM
[17]
  TGI: 46.6 µM
[18]
  TGI: 73.9 µM
[19]
  TGI: > 100 µM
[20]
  TGI: 36.6 µM
[21]
  TGI: 22.9 µM
[22]
  TGI: > 100 µM
[23]
  TGI: 77.6 µM
[24]
  TGI: 73.4 µM
[25]
  TGI: > 100 µM
[26]
  TGI: 35.7 µM
[27]
  TGI: > 100 µM
[28]
  TGI: 46.4 µM
[29]
  TGI: > 100 µM
[30]
  TGI: 68 µM
[31]
  TGI: > 100 µM
[32]
  TGI: 54.7 µM
[33]
  TGI: > 100 µM
[34]
  TGI: 74.4 µM
[35]
  TGI: 66.7 µM
[36]
  TGI: 82.1 µM
[37]
  TGI: 82.6 µM
[38]
  TGI: > 100 µM
[39]
  TGI: > 100 µM
[40]
  TGI: > 100 µM
[41]
  TGI: > 100 µM
[42]
  TGI: > 100 µM
[43]
  TGI: > 100 µM
[44]
  TGI: 22.8 µM
[45]
  TGI: 58.3 µM
[46]
  TGI: 28.5 µM
[47]
  TGI: 64.4 µM
[48]
  TGI: 5.51 µM
[49]
  TGI: > 100 µM
[50]
  TGI: 93 µM
[51]
  TGI: > 100 µM
[52]
  TGI: > 100 µM
[53]
  TGI: 76 µM

## CCOc1ccc(N/C(=C(/C(Cl)=C(/Cl)NCCN)[N+](=O)[O-])n2nnc3ccccc32)cc1
[1]
  TGI: > 100 µM
[2]
  TGI: > 100 µM
[3]
  TGI: > 100 µM
[4]
  TGI: > 100 µM
[54]
  TGI: 27.6 µM
[55]
  TGI: > 100 µM
[6]
  TGI: > 100 µM
[8]
  TGI: > 100 µM
[9]
  TGI: > 100 µM
[10]
  TGI: > 100 µM
[11]
  TGI: > 100 µM
[12]
  TGI: 38 µM
[13]
  TGI: > 100 µM
[15]
  TGI: > 100 µM
[16]
  TGI: 30.4 µM
[17]
  TGI: > 100 µM
[18]
  TGI: > 100 µM
[19]
  TGI: > 100 µM
[56]
  TGI: > 100 µM
[21]
  TGI: 43.8 µM
[23]
  TGI: > 100 µM
[24]
  TGI: 34.8 µM
[25]
  TGI: > 100 µM
[26]
  TGI: > 100 µM
[27]
  TGI: > 100 µM
[28]
  TGI: > 100 µM
[29]
  TGI: 21.6 µM
[30]
  TGI: > 100 µM
[31]
  TGI: > 100 µM
[32]
  TGI: 41.9 µM
[33]
  TGI: > 100 µM
[34]
  TGI: > 100 µM
[35]
  TGI: 98.2 µM
[36]
  TGI: > 100 µM
[37]
  TGI: > 100 µM
[38]
  TGI: 34.5 µM
[39]
  TGI: > 100 µM
[40]
  TGI: > 100 µM
[42]
  TGI: > 100 µM
[43]
  TGI: > 100 µM
[44]
  TGI: 32.4 µM
[45]
  TGI: > 100 µM
[46]
  TGI: 74.6 µM
[47]
  TGI: > 100 µM
[49]
  TGI: > 100 µM
[50]
  TGI: > 100 µM
[51]
  TGI: > 100 µM
[52]
  TGI: > 100 µM
[53]
  TGI: 63.3 µM

## O=C(NS(=O)(=O)Nc1ccc(Cl)cc1)OCc1ccc(Cl)cc1Cl
[1]
  TGI: 44.2 µM
[2]
  TGI: 50.9 µM
[3]
  TGI: > 100 µM
[4]
  TGI: > 100 µM
[54]
  TGI: 47.5 µM
[55]
  TGI: 38.8 µM
[5]
  TGI: 52.8 µM
[6]
  TGI: 49.9 µM
[8]
  TGI: 52.6 µM
[9]
  TGI: 30.9 µM
[10]
  TGI: 63 µM
[12]
  TGI: > 100 µM
[13]
  TGI: > 100 µM
[14]
  TGI: > 100 µM
[15]
  TGI: > 100 µM
[16]
  TGI: 90.7 µM
[17]
  TGI: 29.9 µM
[57]
  TGI: 87.2 µM
[18]
  TGI: > 100 µM
[19]
  TGI: > 100 µM
[20]
  TGI: 61.9 µM
[21]
  TGI: > 100 µM
[22]
  TGI: 46.5 µM
[23]
  TGI: 42.7 µM
[58]
  TGI: 57.3 µM
[25]
  TGI: 66.7 µM
[26]
  TGI: 48.2 µM
[27]
  TGI: > 100 µM
[28]
  TGI: 31.9 µM
[29]
  TGI: > 100 µM
[30]
  TGI: 76.9 µM
[31]
  TGI: > 100 µM
[32]
  TGI: 40.6 µM
[33]
  TGI: 50.3 µM
[34]
  TGI: > 100 µM
[35]
  TGI: 37.5 µM
[36]
  TGI: 65.7 µM
[37]
  TGI: 90.2 µM
[38]
  TGI: 20.6 µM
[39]
  TGI: 97.5 µM
[40]
  TGI: 82.3 µM
[41]
  TGI: 39.1 µM
[42]
  TGI: 32.3 µM
[43]
  TGI: 51.2 µM
[59]
  TGI: 41.9 µM
[44]
  TGI: 32.3 µM
[45]
  TGI: 52.3 µM
[46]
  TGI: 45.5 µM
[47]
  TGI: > 100 µM
[49]
  TGI: 57.2 µM
[51]
  TGI: 48.4 µM
[52]
  TGI: 70.3 µM
[53]
  TGI: 36 µM

## C=CCN(CC=C)Cn1c(=S)sc2ccccc21
[1]
  TGI: > 100 µM
[2]
  TGI: > 100 µM
[3]
  TGI: > 100 µM
[4]
  TGI: > 100 µM
[5]
  TGI: > 100 µM
[6]
  TGI: > 100 µM
[7]
  TGI: > 100 µM
[8]
  TGI: > 100 µM
[9]
  TGI: > 100 µM
[10]
  TGI: > 100 µM
[12]
  TGI: > 100 µM
[15]
  TGI: > 100 µM
[16]
  TGI: > 100 µM
[17]
  TGI: > 100 µM
[57]
  TGI: 41 µM
[18]
  TGI: 47.5 µM
[19]
  TGI: > 100 µM
[20]
  TGI: > 100 µM
[21]
  TGI: > 100 µM
[22]
  TGI: > 100 µM
[23]
  TGI: > 100 µM
[58]
  TGI: 47.1 µM
[24]
  TGI: 30.7 µM
[25]
  TGI: > 100 µM
[26]
  TGI: > 100 µM
[28]
  TGI: > 100 µM
[29]
  TGI: > 100 µM
[30]
  TGI: > 100 µM
[31]
  TGI: > 100 µM
[32]
  TGI: > 100 µM
[33]
  TGI: > 100 µM
[34]
  TGI: > 100 µM
[35]
  TGI: > 100 µM
[36]
  TGI: > 100 µM
[37]
  TGI: > 100 µM
[38]
  TGI: > 100 µM
[39]
  TGI: > 100 µM
[40]
  TGI: > 100 µM
[41]
  TGI: > 100 µM
[42]
  TGI: > 100 µM
[59]
  TGI: > 100 µM
[44]
  TGI: > 100 µM
[45]
  TGI: > 100 µM
[46]
  TGI: > 100 µM
[47]
  TGI: > 100 µM
[48]
  TGI: 37.7 µM
[49]
  TGI: > 100 µM
[50]
  TGI: > 100 µM
[51]
  TGI: > 100 µM
[52]
  TGI: > 100 µM
[53]
  TGI: > 100 µM
